How the values were obtained:
Experiment in all cases: biochemical
Design in all cases: DiscoveRx KINOMEscan competition binding, percent of DMSO control signal at 100 nM
Conditions in all cases: read-out: Fig. 4a / Percent Control / Compound 1; percent of DMSO control, competition binding
TGFBR1 = TGFBR1 (Homo sapiens, UniProt P36897)
PRKD3 = PRKD3 (Homo sapiens, UniProt O94806)
TBK1 = TBK1 (Homo sapiens, UniProt Q9UHD2)
ROS1 = ROS1 (Homo sapiens, UniProt P08922)
PRKCH = PRKCH (Homo sapiens, UniProt P24723)
PIM1 = PIM1 (Homo sapiens, UniProt P11309)
NEK6 = NEK6 (Homo sapiens, UniProt Q9HC98)
[1] = biological target: T1, ABL1(Q252H)-phosphorylated (Homo sapiens, UniProt P00519, Q252H)
T1 construct: phosphorylated

FLT3(ITD,D835V) = FLT3(ITD,D835V) (Homo sapiens, UniProt P36888, D835V/ITD)
TSSK1B = TSSK1B (Homo sapiens, UniProt Q9BXA7)
CAMKK2 = CAMKK2 (Homo sapiens, UniProt Q96RR4)
MEK4 = biological target: T2, MEK4 (Homo sapiens, UniProt P45985)
T2 construct: gene MAP2K4

MUSK = MUSK (Homo sapiens, UniProt O15146)
VRK2 = VRK2 (Homo sapiens, UniProt Q86Y07)
LIMK2 = LIMK2 (Homo sapiens, UniProt P53671)
LCK = LCK (Homo sapiens, UniProt P06239)
[2] = biological target: T3, ABL1(Q252H)-nonphosphorylated (Homo sapiens, UniProt P00519, Q252H)
T3 construct: nonphosphorylated

MELK = MELK (Homo sapiens, UniProt Q14680)
ERBB2 = ERBB2 (Homo sapiens, UniProt P04626)
ULK1 = ULK1 (Homo sapiens, UniProt O75385)
PYK2 = biological target: T4, PYK2 (Homo sapiens, UniProt Q14289)
T4 construct: gene PTK2B

CSNK1G3 = CSNK1G3 (Homo sapiens, UniProt Q9Y6M4)
BRSK1 = BRSK1 (Homo sapiens, UniProt Q8TDC3)
MYO3A = MYO3A (Homo sapiens, UniProt Q8NEV4)
KIT(L576P) = KIT(L576P) (Homo sapiens, UniProt P10721, L576P)
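Note: KINOMEscan kinase panel binding assay, signal normalized between DMSO as 100% and a positive control compound as 0%.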

Chain of PIM1 (P11309 whole entry): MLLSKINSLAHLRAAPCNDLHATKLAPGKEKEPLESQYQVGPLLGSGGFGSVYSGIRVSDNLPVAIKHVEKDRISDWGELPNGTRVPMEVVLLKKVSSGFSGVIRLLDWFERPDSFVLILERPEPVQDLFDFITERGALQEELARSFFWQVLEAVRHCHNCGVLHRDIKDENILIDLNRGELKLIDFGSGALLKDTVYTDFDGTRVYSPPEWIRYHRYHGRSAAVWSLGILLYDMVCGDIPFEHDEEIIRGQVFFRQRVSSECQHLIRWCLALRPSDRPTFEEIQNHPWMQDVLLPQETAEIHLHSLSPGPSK
Chain of VRK2 (Q86Y07 whole entry): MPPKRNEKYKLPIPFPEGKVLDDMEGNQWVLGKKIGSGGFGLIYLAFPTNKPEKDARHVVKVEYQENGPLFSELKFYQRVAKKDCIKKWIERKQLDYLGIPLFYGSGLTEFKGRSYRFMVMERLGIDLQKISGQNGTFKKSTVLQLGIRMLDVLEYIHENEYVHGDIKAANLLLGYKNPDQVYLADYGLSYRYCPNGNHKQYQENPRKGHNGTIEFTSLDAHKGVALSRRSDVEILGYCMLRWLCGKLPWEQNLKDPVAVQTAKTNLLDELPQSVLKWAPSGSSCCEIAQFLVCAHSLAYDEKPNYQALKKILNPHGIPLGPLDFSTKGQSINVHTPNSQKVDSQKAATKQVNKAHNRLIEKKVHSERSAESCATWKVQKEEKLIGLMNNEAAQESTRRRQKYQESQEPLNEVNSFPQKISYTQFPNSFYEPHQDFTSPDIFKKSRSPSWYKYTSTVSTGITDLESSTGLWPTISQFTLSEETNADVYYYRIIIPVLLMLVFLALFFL
Chain of LCK (P06239 whole entry): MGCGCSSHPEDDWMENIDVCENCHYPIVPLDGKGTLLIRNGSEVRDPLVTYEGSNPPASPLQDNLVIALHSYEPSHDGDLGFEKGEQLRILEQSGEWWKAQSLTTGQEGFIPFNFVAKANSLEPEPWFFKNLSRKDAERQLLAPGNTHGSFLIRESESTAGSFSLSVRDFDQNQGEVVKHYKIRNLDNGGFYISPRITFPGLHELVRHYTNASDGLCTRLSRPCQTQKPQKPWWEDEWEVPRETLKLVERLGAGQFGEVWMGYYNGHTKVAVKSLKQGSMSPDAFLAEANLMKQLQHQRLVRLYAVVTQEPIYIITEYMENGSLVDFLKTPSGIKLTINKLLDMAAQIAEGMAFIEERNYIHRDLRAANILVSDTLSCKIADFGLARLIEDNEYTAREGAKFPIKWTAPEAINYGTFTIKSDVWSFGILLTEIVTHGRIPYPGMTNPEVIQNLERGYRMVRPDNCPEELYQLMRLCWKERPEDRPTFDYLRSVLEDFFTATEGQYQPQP
Chain of NEK6 (Q9HC98 whole entry): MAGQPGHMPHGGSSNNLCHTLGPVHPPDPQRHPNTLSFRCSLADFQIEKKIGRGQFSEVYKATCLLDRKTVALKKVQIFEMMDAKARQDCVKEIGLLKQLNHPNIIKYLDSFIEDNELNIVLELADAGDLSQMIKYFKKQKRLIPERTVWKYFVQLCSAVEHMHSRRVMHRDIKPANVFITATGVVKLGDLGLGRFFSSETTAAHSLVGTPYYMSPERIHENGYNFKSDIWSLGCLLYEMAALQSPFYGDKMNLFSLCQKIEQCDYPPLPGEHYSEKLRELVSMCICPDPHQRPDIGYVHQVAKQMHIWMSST
Chain of MYO3A (Q8NEV4 whole entry): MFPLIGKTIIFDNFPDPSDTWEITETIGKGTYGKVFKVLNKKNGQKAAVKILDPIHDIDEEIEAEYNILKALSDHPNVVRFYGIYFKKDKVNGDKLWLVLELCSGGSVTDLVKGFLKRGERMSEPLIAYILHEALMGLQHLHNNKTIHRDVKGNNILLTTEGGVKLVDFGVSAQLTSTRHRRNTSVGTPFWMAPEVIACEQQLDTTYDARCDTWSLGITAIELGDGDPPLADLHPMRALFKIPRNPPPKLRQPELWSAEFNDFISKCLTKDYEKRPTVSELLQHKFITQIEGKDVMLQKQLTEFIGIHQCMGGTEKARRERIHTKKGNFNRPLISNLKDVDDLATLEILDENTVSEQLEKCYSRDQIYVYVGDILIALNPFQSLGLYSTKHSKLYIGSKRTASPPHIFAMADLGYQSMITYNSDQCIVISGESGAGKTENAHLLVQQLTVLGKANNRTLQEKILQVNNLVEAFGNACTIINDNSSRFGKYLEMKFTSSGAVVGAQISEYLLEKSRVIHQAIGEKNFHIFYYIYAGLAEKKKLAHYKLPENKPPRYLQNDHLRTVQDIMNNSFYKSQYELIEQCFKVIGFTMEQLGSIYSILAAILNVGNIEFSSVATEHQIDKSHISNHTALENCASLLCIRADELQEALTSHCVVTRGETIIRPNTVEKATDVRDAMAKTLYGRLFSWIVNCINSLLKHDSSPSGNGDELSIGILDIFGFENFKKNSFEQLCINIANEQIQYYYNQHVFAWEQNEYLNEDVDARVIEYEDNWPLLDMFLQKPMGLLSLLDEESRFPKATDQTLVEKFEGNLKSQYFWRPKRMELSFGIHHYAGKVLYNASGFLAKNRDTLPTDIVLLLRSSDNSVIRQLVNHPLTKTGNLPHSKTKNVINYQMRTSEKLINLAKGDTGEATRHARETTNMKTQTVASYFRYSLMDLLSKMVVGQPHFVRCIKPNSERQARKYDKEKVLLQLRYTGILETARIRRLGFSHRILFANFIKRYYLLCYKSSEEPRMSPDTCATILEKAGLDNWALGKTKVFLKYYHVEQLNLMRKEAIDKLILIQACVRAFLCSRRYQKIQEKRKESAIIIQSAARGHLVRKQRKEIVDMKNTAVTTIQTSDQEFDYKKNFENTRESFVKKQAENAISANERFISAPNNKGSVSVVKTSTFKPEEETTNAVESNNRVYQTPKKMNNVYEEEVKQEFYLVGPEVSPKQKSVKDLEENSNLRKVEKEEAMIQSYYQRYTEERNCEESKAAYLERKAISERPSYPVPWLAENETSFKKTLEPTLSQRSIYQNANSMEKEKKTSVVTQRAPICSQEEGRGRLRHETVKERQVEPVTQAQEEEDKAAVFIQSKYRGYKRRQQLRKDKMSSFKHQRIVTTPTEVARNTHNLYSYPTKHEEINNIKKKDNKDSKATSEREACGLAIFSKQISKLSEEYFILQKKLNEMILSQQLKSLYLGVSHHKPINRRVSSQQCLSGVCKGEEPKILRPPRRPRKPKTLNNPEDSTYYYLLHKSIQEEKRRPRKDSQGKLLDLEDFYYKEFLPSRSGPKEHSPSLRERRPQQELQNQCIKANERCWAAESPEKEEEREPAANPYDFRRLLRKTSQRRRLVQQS
Chain of PRKCH (P24723 whole entry): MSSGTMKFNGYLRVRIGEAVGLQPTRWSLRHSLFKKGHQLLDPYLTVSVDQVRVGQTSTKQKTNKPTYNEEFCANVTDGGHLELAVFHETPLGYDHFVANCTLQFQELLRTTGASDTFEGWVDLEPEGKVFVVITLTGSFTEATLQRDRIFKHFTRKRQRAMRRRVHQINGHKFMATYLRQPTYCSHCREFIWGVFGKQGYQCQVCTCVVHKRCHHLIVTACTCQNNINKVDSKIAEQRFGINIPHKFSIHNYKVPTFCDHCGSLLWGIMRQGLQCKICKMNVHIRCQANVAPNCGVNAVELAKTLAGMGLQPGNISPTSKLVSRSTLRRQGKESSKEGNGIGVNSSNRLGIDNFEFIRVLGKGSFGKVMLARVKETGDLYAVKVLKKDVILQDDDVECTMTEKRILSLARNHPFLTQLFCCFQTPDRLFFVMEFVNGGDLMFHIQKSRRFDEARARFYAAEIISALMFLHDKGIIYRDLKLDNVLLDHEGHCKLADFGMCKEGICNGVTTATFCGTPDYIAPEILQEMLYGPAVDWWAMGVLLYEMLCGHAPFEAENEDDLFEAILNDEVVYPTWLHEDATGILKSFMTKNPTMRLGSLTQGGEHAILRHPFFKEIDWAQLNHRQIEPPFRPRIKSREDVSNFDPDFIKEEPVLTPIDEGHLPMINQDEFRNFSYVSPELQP
Chain of ULK1 (O75385 whole entry): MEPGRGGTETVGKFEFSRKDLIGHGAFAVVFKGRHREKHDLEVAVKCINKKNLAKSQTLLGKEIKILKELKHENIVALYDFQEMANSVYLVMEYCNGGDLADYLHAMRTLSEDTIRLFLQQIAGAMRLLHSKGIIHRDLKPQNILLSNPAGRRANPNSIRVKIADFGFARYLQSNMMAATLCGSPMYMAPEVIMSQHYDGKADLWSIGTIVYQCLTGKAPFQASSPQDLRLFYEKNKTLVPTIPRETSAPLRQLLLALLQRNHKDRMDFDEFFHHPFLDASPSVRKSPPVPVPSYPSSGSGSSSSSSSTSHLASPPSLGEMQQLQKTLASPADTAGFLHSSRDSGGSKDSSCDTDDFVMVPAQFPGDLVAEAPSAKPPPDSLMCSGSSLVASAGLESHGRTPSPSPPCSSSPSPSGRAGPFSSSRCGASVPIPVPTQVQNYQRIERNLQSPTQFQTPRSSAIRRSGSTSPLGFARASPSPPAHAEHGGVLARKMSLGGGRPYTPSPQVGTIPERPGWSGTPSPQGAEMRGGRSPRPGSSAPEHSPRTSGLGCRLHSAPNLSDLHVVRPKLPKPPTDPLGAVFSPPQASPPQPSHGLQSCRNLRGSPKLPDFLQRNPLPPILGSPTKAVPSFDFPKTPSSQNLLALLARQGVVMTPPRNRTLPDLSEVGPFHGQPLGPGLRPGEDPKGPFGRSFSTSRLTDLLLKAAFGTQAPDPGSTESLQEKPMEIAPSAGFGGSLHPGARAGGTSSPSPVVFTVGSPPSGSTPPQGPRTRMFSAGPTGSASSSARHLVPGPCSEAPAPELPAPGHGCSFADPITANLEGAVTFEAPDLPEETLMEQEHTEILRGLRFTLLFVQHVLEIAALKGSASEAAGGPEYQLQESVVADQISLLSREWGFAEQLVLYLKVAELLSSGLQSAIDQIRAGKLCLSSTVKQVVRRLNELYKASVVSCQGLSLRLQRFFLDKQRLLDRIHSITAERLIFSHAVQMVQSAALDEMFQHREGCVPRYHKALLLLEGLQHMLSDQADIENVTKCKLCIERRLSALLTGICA

With `Cc1cnc2nc1Nc1cccc(c1)COCc1cc(ccc1OCCN1CCCC1)N2` [Compound 1] the remaining binding at 0.1 µM (TGFBR1) was 94%, the remaining binding at 0.1 µM (PRKD3) was 100% and the remaining binding at 0.1 µM (TBK1) was 76%. It also gave a remaining binding at 0.1 µM (ROS1) of 76%, a remaining binding at 0.1 µM (PRKCH) of 91% and a remaining binding at 0.1 µM (PIM1) of 100%. The remaining binding at 0.1 µM (NEK6) was 100%, the remaining binding at 0.1 µM [1] was 59% and the remaining binding at 0.1 µM (FLT3(ITD,D835V)) was 2.1%. The remaining binding at 0.1 µM (TSSK1B) was 92%, the remaining binding at 0.1 µM (CAMKK2) was 96% and the remaining binding at 0.1 µM (MEK4) was 92%. The remaining binding at 0.1 µM (MUSK) was 90%, the remaining binding at 0.1 µM (VRK2) was 97% and the remaining binding at 0.1 µM (LIMK2) was 92%. The remaining binding at 0.1 µM (LCK) was 72%, the remaining binding at 0.1 µM [2] was 51% and the remaining binding at 0.1 µM (MELK) was 100%. For the same compound, the remaining binding at 0.1 µM (ERBB2) was 96%, the remaining binding at 0.1 µM (ULK1) was 52% and the remaining binding at 0.1 µM (PYK2) was 82%. It also gave a remaining binding at 0.1 µM (CSNK1G3) of 100%, a remaining binding at 0.1 µM (BRSK1) of 93% and a remaining binding at 0.1 µM (MYO3A) of 100%. The remaining binding at 0.1 µM (KIT(L576P)) was 14%.
